Consider two molecules from ChEMBL document CHEMBL1155644, “New marine cembrane-type diterpenoids from the Okinawan soft coral Clavularia koellikeri” (J Nat Prod, 2000).

≈ marks a conversion by molar mass, not a printed value. Calls of active or inactive are those of the source. No cut-off for these calls is given here.

Holding throughout (format): functional, cell-based
The test system of test [1] is MOLT-4. The experiment in a line: Cytotoxicity against human MOLT4 cells.
In test [2] the test system is DLD-1. As to the kind of experiment: Cytotoxicity against human DLD1 cells.
Test [3] has as its system DLD-1. The experiment in a line: Cytotoxicity against human DLD1 cells at 0.6 uM/mL.
In test [4] the test system is MOLT-4. As to the kind of experiment: Cytotoxicity against human MOLT4 cells at 0.6 uM/mL.

By IC50 is commonly meant the point on the concentration scale where inhibition reaches its midpoint. A low value points to greater potency in that assay. With `C=C1C(=O)O[C@H]2/C=C(\C)C[C@H](OC(C)=O)/C=C(\C)C[C@H](OC(C)=O)/C=C(\C)C[C@H](OC(C)=O)[C@H]12`, the IC50 turned out to be 0.9 µg/mL (≈ 1.9 µM) with MOLT-4 [1] and 4.2 µg/mL (≈ 8.85 µM) with DLD-1 [2]. Moreover, the outcome with DLD-1 [3] and in the test on MOLT-4 [4] was Active.

Regarding `C=C1C(=O)O[C@H]2/C=C(\C)C[C@H](OC(C)=O)/C=C(\C)CC/C=C(\C)C[C@H](O)[C@H]12`, the result with DLD-1 [3] and in the test on MOLT-4 [4] was Active.
